In patent US12145947B2, “Pyrimidine based modulators and uses thereof” (Quanta Therapeutics, Inc., priority 2022, dated 2024):

Columns and labels:
KRAS G12D/RAF1 = biological target: T1, KRAS G12D/RAF1 (Homo sapiens, UniProt P01116, G12D); assay: Protein-protein interaction (PPI) HTRF assay KRAS G12D/RAF1; assay type: binding; conditions: Table 4
T1 construct: His6-MBP (N, cleaved yes); made in house; host or cells: E. coli
Outline: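 HTRF pairing of His-tagged RAF1 (52-131) plus Tb-cryptate donor with GppNHp-exchanged biotin-RAS (KRAS 1-169 wt/G12D/G12V, NRAS wt) plus streptavidin-d2 acceptor; compound sits 30 min with RAS first, then 1 h RT with RAF1. IC50 derived from 665/615 ratio, untagged RAF1 defining full inhibition.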

[1] = biological target: T2, GST-tagged KRAS-G12D (2-169) (Homo sapiens, UniProt P01116, G12D); assay: Nucleotide exchange assay (NEA), SOS-mediated, HTRF, KRAS G12D; assay type: biochemical; conditions: Table 4; IC50 extracted at 30 min
T2 construct: GST-tagged KRAS-G12D (2-169, Reaction Biology, MSC-11-539); purchased Reaction Biology MSC-11-539 (KRAS G12D); MSC-11-502 (SOS1cat)
Outline: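 IC50 values come from 4-parameter fits at the 30 min time point of an SOS-driven exchange read by HTRF, normalised to DMSO (0%) and SOS-free blank (100%). Final reaction: 5 nM GST-KRAS-G12D (2-169), 20 nM SOScat, 150 nM fluorescent GTP-DY-647P1, after 1 h RT compound preincubation with KRAS and Tb-cryptate anti-GST.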

T1 sequence (P01116 with tags, fused parts or gaps isoform P01116-2 G12D): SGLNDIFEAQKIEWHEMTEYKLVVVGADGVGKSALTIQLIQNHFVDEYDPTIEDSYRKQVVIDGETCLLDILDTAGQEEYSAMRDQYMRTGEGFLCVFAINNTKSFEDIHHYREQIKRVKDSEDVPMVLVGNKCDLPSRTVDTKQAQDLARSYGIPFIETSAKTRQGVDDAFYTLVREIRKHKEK
T2 sequence (P01116 2-169 isoform P01116-2 G12D): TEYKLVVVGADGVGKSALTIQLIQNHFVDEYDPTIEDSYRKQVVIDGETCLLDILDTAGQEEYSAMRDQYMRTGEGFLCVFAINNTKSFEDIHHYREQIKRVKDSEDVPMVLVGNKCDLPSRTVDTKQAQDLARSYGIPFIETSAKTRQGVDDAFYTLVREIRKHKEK

| SMILES | IC50 (KRAS G12D/RAF1) | IC50 [1] |
| --- | --- | --- |
| N#Cc1c(N2CCC=CCC2)nc(OC[C@@]23CCCN2C[C@H](F)C3)nc1N1CC2(CCc3sc(N)c(C#N)c32)C1 [Compound 31, 2-amino-1′-[5-cyano-2-[[(2R,8S)-2-fluoro-1,2,3,5,6,7-hexahydropyrrolizin-8-yl]methoxy]-6-(2,3,6,7-tetrahydroazepin-1-yl)pyrimidin-4-yl]spiro[5,6-dihydrocyclopenta[b]thiophene-4,3′-azetidine]-3-carbonitrile] | 1000 to 10000 nM | 10 to 100 nM |
| N#Cc1c(N2C[C@H]3CC[C@@H](C2)N3)nc(OCC2(CN3CCC(F)(F)CC3)CC2)nc1N1CC2(CCCc3sc(N)c(C#N)c32)C1 [Compound 56, 2-amino-1′-[5-cyano-6-[(1R,5S)-3,8-diazabicyclo[3.2.1]octan-3-yl]-2-[[1-[(4,4-difluoro-1-piperidyl)methyl]cyclopropyl]methoxy]pyrimidin-4-yl]spiro[6,7-dihydro-5H-benzothiophene-4,3′-azetidine]-3-carbonitrile] | 100 to 1000 nM | < 10 nM |
